PubChem BioAssay (NCI)
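Tested at 5 concentrations; 48 h exposure; 96-well plates; endpoints linearly interpolated, else capped at highest concentration. Definition used: TGI = concentration required for complete inhibition of growth.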

Columns and labels:
Test in all cases: DTP human tumour cell line panel, 48 h
NCI-H226 lung = system: NCI-H226 lung
786-0 renal = system: 786-0 renal
OVCAR-3 ovarian = system: OVCAR-3 ovarian
SNB-19 CNS = system: SNB-19 CNS
UACC-257 melanoma = system: UACC-257 melanoma
MCF7 breast = system: MCF7 breast
RPMI-8226 leukemia = system: RPMI-8226 leukemia
BT-549 breast = system: BT-549 breast
DU-145 prostate = system: DU-145 prostate
OVCAR-8 ovarian = system: OVCAR-8 ovarian
HOP-92 NSCLC = system: HOP-92 NSCLC

SMILES	TGI (NCI-H226 lung)	TGI (786-0 renal)	TGI (OVCAR-3 ovarian)	TGI (SNB-19 CNS)	TGI (UACC-257 melanoma)	TGI (MCF7 breast)	TGI (RPMI-8226 leukemia)	TGI (BT-549 breast)	TGI (DU-145 prostate)	TGI (OVCAR-8 ovarian)	TGI (HOP-92 NSCLC)
Clc1c(C(Cl)(Cl)Cl)nsc1N1CCCCC1	36.2 µM	39.2 µM	56.9 µM	69.7 µM	64.7 µM	69.3 µM	40.9 µM	48.4 µM	> 100 µM	71 µM	
Cc1nc2ccccc2n1Cc1nnc(N)o1		> 100 µM	> 100 µM	> 100 µM	> 100 µM	> 100 µM	> 100 µM	> 100 µM	> 100 µM	> 100 µM	> 100 µM
C(=C\c1cc(-c2ccc3ccccc3n2)nc2ccc3ccccc3c12)/c1ccc2ccccc2n1	> 100 µM	> 100 µM	> 100 µM	> 100 µM	> 100 µM	> 100 µM	> 100 µM	> 100 µM	> 100 µM	> 100 µM	
C[C@]1(O)O[C@@H]2OCC[C@@H]2C2=C1C(=O)c1ccccc1C2=O		28.8 µM	22.3 µM	35.2 µM	31 µM	23.3 µM	20.9 µM		30.4 µM	29.4 µM	31 µM
NC(=O)c1nnsc1NC=O	> 100 µM	> 100 µM		> 100 µM	> 100 µM	> 100 µM	> 100 µM		> 100 µM	> 100 µM	> 100 µM
CC(=O)/C=C(\O)c1[nH]c(C(=O)O)cc1C1CCN(Cc2ccccc2)C1=O (stereo not drawn)		47.6 µM	54.9 µM	83.5 µM	53.7 µM	65.7 µM	49 µM	58.1 µM	59.2 µM	36.4 µM	58.8 µM
O=C(OCc1ccccc1)N1CCN(C(=O)OCc2ccccc2)CCN(C(=O)OCc2ccccc2)CCN(C(=O)OCc2ccccc2)CCN(C(=O)OCc2ccccc2)CC1	> 100 µM	48.4 µM	> 100 µM	> 100 µM	73.1 µM	> 100 µM		> 100 µM	> 100 µM	> 100 µM	> 100 µM
CC(=O)Oc1ccc(/C=C/C(=O)O[C@H]2CCCC[C@@H]2OC(=O)/C=C/c2ccc(OC(C)=O)c(OC(C)=O)c2)cc1OC(C)=O		36 µM	95.7 µM	27.6 µM	52.6 µM	42.9 µM	31.9 µM	36.9 µM	33.7 µM	61.7 µM	33.7 µM
CC(=O)N1c2ccccc2C(C)C1c1[nH]c2ccccc2c1C (stereo not drawn)	72.3 µM	39.9 µM	46.1 µM	> 100 µM	49.3 µM	> 100 µM	73 µM	58.1 µM	> 100 µM	57.3 µM	
C=CCN(c1cc(OC)c2[nH]cc(C)c2c1[N+](=O)[O-])S(C)(=O)=O	> 100 µM	> 100 µM	> 100 µM	> 100 µM	> 100 µM	> 100 µM	> 100 µM	> 100 µM	> 100 µM	> 100 µM	
